Test results published in ChEMBL document CHEMBL1158398, “New cyclopentane derivatives as inhibitors of steroid metabolizing enzymes AKR1C1 and AKR1C3” (Eur J Med Chem, 2009).
The source made the active and inactive calls. No cut-off for these calls is given here.

Columns and labels:
[1] = molecular target: T1, Aldo-keto reductase family 1 member C3 (Homo sapiens) (UniProt P42330); assay: Inhibition of human recombinant GST-tagged AKR1C3 expressed in Escherichia coli BL21 at 100 uM
T1 sequence (whole entry): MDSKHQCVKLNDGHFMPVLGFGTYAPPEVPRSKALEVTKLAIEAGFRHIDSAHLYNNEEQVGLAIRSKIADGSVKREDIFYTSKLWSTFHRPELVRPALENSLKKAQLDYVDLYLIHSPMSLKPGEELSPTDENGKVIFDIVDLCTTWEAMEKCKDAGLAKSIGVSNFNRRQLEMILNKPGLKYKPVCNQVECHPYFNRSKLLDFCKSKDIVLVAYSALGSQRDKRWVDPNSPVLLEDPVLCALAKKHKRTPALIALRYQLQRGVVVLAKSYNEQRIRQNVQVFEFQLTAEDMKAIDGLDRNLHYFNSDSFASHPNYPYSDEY

[2] = molecular target: T2, Aldo-keto reductase family 1 member C1 (Homo sapiens) (UniProt Q04828); assay: Inhibition of human recombinant GST-tagged AKR1C1 expressed in Escherichia coli BL21 at 100 uM
T2 sequence (whole entry): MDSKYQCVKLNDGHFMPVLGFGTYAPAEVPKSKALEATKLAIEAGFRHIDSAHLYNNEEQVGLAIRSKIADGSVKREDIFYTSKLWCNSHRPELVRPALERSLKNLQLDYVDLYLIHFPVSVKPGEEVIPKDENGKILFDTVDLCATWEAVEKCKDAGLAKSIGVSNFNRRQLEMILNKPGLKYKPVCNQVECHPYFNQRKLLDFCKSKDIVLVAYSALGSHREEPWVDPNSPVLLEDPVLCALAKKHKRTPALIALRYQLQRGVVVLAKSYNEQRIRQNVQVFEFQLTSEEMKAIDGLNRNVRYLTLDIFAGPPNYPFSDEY

[3] = molecular target: T2, Aldo-keto reductase family 1 member C1 (Homo sapiens); assay: Competitive inhibition of human recombinant GST-tagged AKR1C1 expressed in Escherichia coli BL21 at 36.2 uM by Lineweaver-Burke plot analysis
[4] = molecular target: T2, Aldo-keto reductase family 1 member C1 (Homo sapiens); assay: Competitive inhibition of human recombinant GST-tagged AKR1C1 expressed in Escherichia coli BL21 at 72.5 uM by Lineweaver-Burke plot analysis
[5] = molecular target: T2, Aldo-keto reductase family 1 member C1 (Homo sapiens); assay: Competitive inhibition of human recombinant GST-tagged AKR1C1 expressed in Escherichia coli BL21 at 17.4 uM by Lineweaver-Burke plot analysis
[6] = molecular target: T3, Aldo-keto reductase family 1 member C3 (Homo sapiens, UniProt P42330); assay: Inhibition of human recombinant GST-tagged AKR1C3 expressed in Escherichia coli BL21
T3 sequence (P42330 whole entry): T1 sequence (whole entry)

[7] = molecular target: T4, Aldo-keto reductase family 1 member C1 (Homo sapiens, UniProt Q04828); assay: Inhibition of human recombinant GST-tagged AKR1C1 expressed in Escherichia coli BL21
T4 sequence (Q04828 whole entry): T2 sequence (whole entry)

[8] = molecular target: T2, Aldo-keto reductase family 1 member C1 (Homo sapiens); assay: Inhibition of human recombinant GST-tagged AKR1C1 expressed in Escherichia coli BL21 at 50 uM
[9] = molecular target: T1, Aldo-keto reductase family 1 member C3 (Homo sapiens); assay: Inhibition of human recombinant GST-tagged AKR1C3 expressed in Escherichia coli BL21 at 50 uM
[10] = Solubility of the compound; format: physicochemical

SMILES	inhibition [1]	inhibition [2] [%]	also measured
Cc1ccc(S(=O)(=O)N[C@@H]2CCC[C@H]2Br)cc1 (relative stereo)	9.2%	20.3	–
O[C@H]1CCC[C@H]1Cc1ccccc1 (relative stereo)	inactive	9.7	–
Cc1ccc(S(=O)(=O)N[C@@H]2CCC[C@H]2C(N)=O)cc1 (relative stereo)	inactive	12.9	–
O=C1CCC/C1=C\c1ccc(Cl)cc1	88.8%	77.8	Activity [3]: Active; Activity [4]: Active; Activity [5]: Active; IC50 [6]: 36.7 µM; Ki [6]: 33.4 µM; IC50 [7]: 35 µM; Ki [7]: 17.2 µM
Cc1ccc(S(=O)(=O)N2C3CCCC32)cc1 (stereo unspecified)	2.7%	2.1	–
COC1CCC/C1=C\c1ccc(Cl)cc1 (stereo unspecified)	87.4%	40.1	IC50 [6]: 17.8 µM; Ki [6]: 16.2 µM
Cc1ccc(S(=O)(=O)N[C@@H]2CCC[C@H]2C#N)cc1 (relative stereo)	inactive	15.9	–
OC1CCCC1(Cc1ccccc1)Cc1ccccc1 (stereo unspecified)	–	–	inhibition [8]: 15.9%; inhibition [9]: 67.3%; solubility [10]: Insoluble
O=C(O)C1(c2ccccc2)CCCC1	5.8%	53.5	IC50 [7]: 72.9 µM; Ki [7]: 35.8 µM
CCOC1CCC/C1=C\c1ccc(Cl)cc1 (stereo unspecified)	83.9%	52.9	IC50 [6]: 22.5 µM; Ki [6]: 20.5 µM; IC50 [7]: 62.1 µM; Ki [7]: 30.5 µM
O[C@@H]1CCC[C@H]1Nc1ccccc1 (relative stereo)	inactive	14.7	–
O[C@@H]1CCC[C@H]1Cc1ccccc1 (relative stereo)	inactive	13.8	–
OC1C(Cc2ccccc2)CCC1Cc1ccccc1 (stereo unspecified)	–	–	inhibition [8]: 11.5%; inhibition [9]: 46.6%; solubility [10]: Insoluble
O=C(O)C1CCC(c2ccccc2)C1 (stereo unspecified)	52.7%	55.4	IC50 [6]: 76.6 µM; Ki [6]: 69.6 µM; IC50 [7]: 98.6 µM; Ki [7]: 48.5 µM
Cc1ccc(S(=O)(=O)N[C@@H]2CCC[C@H]2C(=O)O)cc1 (relative stereo)	inactive	26.1	–
